Patent publication US7541367B2, “3-benzoimidazolyl-pyrazolopyridines useful in treating kinase disorders” (Janssen Pharmaceutica, N.V., priority 2005, dated 2009)
Values joined by “and” are separate entries in the source; they are usually repeats but may differ in a detail not shown here. Identical values can stand only once.

Key:
c-Src kinase = molecular target: T1, c-Src kinase (Homo sapiens, UniProt P12931); assay: c-Src Kinase Assay; type: biochemical; conditions: 5 μM ATP
T1 construct: purchased Upstate Biotechnology, Lake Placid, N.Y
T1 sequence (P12931 whole entry): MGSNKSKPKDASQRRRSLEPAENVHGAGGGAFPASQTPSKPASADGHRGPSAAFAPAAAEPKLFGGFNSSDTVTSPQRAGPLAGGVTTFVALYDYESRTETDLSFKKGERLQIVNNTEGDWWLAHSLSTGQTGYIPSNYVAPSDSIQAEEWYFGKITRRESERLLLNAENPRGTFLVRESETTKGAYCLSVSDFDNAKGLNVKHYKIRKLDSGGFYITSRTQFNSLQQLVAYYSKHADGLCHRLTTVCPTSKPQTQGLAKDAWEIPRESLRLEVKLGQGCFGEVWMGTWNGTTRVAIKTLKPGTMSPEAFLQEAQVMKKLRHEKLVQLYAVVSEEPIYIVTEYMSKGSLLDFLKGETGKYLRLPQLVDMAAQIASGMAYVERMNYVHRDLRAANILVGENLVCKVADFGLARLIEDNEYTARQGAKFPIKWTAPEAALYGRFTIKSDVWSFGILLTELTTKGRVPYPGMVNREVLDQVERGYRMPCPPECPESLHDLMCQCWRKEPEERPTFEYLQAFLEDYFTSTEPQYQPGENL
Procedure: A mixture of a 10× kinase buffer (80 mM MOPS at pH 7.0, 2 mM EDTA and 100 mM Magnesium Chloride), ATP (5 μM final from a 10 mM stock), a Cdc2 peptide […] (100 μM final from a 2.5 mM stock), γ-^33P ATP (10 μCi/μL stock) and water (for a total of 20 μL/well) was added to each well of a Streptavidin Flashplate.
Test compound in 100% DMSO (0.5 μL) was added to the appropriate wells. Diluted c-Src kinase (human) (Accession Number SWISS-PROT P12931) (Upstate Biotechnology, Lake Placid, N.Y.) (diluted in a buffer consisting of 20 mM MOPS at pH 7.0, 1 mM EDTA, β-mercaptoethanol (0.1%), Brij-35 (0.01%), glycerol (5%), and 1 mg/mL bovine serum albumin) (2.5 μL) was added to the wells to initiate the reactions. The reaction plates were incubated at 30° C. for 40 min. The reaction was terminated by the addition of a 3% phosphoric acid solution (5 μL). The reaction product (10 μL) was spotted onto a P30 filtermat and washed for 5 minutes in phosphoric acid (75 mM). The wash sequence was repeated two more times, followed with one final wash in methanol. The plates were then dried, sealed and read on the TopCount scintillation counter after adding 30 μL scintillation fluid.
(§1) A maximum and minimum signal for the assay was determined on each plate. The percent inhibition of a test compound was calculated according to the formula: […]
For a series of test concentrations, the IC50 was derived by graphing percent inhibition against the log of the concentrations tested for a given compound with results shown in Table 2
(§2) For compounds with multiple values, each value represents a separate assay result.

A375 malignant melanoma = assay: Cell Proliferation Inhibition Assay (14C-thymidine incorporation), A375; type: cell-based; conditions: Homo sapiens, A-375, A375 cells;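 further: proliferation measured by radiolabelled thymidine uptake into new DNA, counted in scintillating 96-well plates, compound-treated wells compared with DMSO-only control wells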
Lyn kinase = molecular target: T2, Lyn kinase (Homo sapiens, UniProt P07948); assay: Lyn Kinase Assay; type: biochemical; conditions: 5 μM ATP
T2 construct: purchased Upstate Biotechnology, Lake Placid, N.Y
T2 sequence (P07948 whole entry): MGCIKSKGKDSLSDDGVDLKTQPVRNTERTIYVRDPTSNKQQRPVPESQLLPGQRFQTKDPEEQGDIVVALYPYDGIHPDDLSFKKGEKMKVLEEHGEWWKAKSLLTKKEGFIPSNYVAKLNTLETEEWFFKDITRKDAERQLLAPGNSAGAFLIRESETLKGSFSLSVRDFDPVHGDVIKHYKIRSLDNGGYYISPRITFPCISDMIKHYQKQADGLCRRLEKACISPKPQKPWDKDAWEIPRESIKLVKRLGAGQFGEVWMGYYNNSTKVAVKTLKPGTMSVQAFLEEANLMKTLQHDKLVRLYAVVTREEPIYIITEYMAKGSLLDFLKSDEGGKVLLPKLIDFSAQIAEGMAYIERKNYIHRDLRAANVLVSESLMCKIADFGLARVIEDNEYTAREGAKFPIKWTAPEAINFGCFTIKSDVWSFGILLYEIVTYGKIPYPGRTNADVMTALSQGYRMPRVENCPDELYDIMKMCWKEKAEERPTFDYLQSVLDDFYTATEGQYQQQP
Procedure: Test compound in 100% DMSO (0.5 μL) was added to the appropriate wells. Diluted Lyn kinase (human) (Accession Number EMBL M16038) (Upstate Biotechnology, Lake Placid, N.Y.) (diluted in a buffer consisting of 50 mM Tris at pH 7.5, 0.1 mM EGTA, Sodium Vanadate (0.1 mM), β-mercaptoethanol (0.1%) and 1 mg/mL bovine serum albumin) (2.5 μL) was added to the wells to initiate the reactions.
The reaction plates were incubated at 30° C. for 40 min. The reaction was terminated by the addition of a 3% phosphoric acid solution (5 μL). The reaction product (10 μL) was spotted onto a P30 filtermat and washed for 5 minutes in phosphoric acid (75 mM). The wash sequence was repeated two more times, followed with one final wash in methanol. The plates were then dried, sealed and read on the TopCount scintillation counter after adding 30 μL scintillation fluid.
as §1
For a series of test concentrations, the IC50 was derived by graphing percent inhibition against the log of the concentrations tested for a given compound with results shown in Table 3
as §2

HER2 = molecular target: T3, HER2 (Homo sapiens, UniProt P04626); assay: HER2 kinase screening assay (33P-ATP FlashPlate); type: biochemical; conditions: GST-HIS6 HER-2 aa 679 to 1255; 10 μM ATP; 1 hr at 30° C;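 further: Biotin-poly(GT) 4:1 peptide captured on streptavidin FlashPlate, 33P transfer from γ-ATP read by scintillation counting, lower incorporation means inhibition, 1% DMSO final, 100 µL reaction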
T3 construct: GST (Glutathione-S-Transferase) (N); HIS6 (N); thrombin cleavage site (N); purchased Proqinase, Freiburg, Germany
T3 sequence (P04626 679-1255): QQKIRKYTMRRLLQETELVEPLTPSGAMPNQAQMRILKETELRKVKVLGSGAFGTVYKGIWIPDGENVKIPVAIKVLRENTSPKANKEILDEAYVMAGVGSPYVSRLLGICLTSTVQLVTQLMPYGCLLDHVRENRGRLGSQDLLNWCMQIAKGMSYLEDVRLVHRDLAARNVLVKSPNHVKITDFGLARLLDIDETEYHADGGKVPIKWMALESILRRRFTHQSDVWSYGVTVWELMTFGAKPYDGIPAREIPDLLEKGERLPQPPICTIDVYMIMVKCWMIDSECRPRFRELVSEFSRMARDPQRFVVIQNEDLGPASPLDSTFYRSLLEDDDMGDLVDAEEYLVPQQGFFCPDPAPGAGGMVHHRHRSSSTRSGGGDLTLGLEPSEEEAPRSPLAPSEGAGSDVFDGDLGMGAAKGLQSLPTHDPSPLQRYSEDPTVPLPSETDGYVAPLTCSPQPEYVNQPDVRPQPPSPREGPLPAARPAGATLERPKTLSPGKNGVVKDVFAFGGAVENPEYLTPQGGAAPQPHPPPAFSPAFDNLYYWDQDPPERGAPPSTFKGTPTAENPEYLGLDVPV

[1] = test system: HeLa cervical adenocarcinoma; assay: Cell Proliferation Inhibition Assay (14C-thymidine incorporation), HeLa; type: cell-based; conditions: Homo sapiens, HeLa cells;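 further: test compound in DMSO added to cells seeded in scintillating 96-well plates, DMSO-only wells as control, uptake of methyl 14C-thymidine into new DNA counted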
HCT-116 colon carcinoma = assay: Cell Proliferation Inhibition Assay (14C-thymidine incorporation), HCT-116; type: cell-based;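 further: proliferation measured as methyl 14C-thymidine uptake into new DNA, counted in 96-well scintillating microplates, compared with DMSO-only control wells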
CDK1 = molecular target: T4, CDK1 (Homo sapiens, UniProt P06493); assay: CDK-1 kinase screening assay (33P-ATP FlashPlate); type: biochemical; conditions: human CDK1 with cyclin B; 10 μM ATP; 1 hr at 30° C
T4 construct: purchased New England Biolabs, Beverly, Mass; 6020; host or cells: insect cells
T4 sequence (P06493 whole entry): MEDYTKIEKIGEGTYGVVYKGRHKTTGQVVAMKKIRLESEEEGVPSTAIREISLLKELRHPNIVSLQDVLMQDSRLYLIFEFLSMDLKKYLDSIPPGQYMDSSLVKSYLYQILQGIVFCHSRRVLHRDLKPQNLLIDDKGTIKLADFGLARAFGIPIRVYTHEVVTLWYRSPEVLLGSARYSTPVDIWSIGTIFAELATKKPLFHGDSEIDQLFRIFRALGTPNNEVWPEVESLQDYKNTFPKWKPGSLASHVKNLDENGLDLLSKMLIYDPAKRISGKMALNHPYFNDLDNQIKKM
T4 sequence (P14635 whole entry partner): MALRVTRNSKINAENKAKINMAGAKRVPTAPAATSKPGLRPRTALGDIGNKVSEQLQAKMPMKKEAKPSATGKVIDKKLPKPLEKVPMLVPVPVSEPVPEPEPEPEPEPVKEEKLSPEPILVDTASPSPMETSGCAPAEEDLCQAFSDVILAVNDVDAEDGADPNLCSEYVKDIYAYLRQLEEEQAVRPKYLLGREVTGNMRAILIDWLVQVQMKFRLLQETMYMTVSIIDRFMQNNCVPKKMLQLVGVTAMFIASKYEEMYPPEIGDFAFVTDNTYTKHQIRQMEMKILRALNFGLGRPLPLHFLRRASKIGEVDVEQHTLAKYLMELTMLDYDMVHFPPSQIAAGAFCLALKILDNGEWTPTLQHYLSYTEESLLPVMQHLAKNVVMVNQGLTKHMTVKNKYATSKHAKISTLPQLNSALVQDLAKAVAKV

VEGF-R2 = molecular target: T5, VEGF-R2 (Rattus norvegicus, UniProt O08775); assay: VEGF-R2 kinase screening assay (33P-ATP FlashPlate); type: biochemical; conditions: rat VEGF-R2 kinase domain; 10 μM ATP; 1 hr at 30° C;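 further: Read-out is ³³P incorporation from ³³P-γ-ATP into biotinylated peptide substrate captured on streptavidin FlashPlate, counted by scintillation, 1% DMSO final, inhibition scaled between per-plate maximum and minimum signals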
T5 construct: polyhistidine (N)
T5 sequence (O08775 786-1343): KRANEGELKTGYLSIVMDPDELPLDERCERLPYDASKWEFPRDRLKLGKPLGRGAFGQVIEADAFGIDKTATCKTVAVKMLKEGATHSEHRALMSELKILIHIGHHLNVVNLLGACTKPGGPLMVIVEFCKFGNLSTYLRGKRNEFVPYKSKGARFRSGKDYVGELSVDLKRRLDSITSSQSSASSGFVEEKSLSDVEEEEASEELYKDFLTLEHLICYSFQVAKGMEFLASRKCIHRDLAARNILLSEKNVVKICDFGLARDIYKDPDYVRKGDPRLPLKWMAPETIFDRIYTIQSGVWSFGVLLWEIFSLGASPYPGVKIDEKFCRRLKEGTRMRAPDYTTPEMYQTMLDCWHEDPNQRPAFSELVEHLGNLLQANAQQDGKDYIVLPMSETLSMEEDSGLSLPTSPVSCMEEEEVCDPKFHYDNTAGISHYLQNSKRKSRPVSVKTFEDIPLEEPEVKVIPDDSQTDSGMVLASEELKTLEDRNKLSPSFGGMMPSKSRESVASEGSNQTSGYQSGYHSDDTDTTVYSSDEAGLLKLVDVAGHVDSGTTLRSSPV

Aurora-A = molecular target: T6, Aurora-A (Mus musculus, UniProt P97477); assay: Aurora-A kinase screening assay (33P-ATP FlashPlate); type: biochemical; conditions: 10 μM ATP, 1 hr at 30° C;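 further: His-tagged mouse Aurora-A phosphorylating a biotinylated peptide captured on streptavidin plates, read as 33P uptake by scintillation counting, 1% DMSO, inhibition scaled between per-plate maximum and minimum signals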
T6 construct: polyhistidine (N)
T6 sequence (P97477 1-395): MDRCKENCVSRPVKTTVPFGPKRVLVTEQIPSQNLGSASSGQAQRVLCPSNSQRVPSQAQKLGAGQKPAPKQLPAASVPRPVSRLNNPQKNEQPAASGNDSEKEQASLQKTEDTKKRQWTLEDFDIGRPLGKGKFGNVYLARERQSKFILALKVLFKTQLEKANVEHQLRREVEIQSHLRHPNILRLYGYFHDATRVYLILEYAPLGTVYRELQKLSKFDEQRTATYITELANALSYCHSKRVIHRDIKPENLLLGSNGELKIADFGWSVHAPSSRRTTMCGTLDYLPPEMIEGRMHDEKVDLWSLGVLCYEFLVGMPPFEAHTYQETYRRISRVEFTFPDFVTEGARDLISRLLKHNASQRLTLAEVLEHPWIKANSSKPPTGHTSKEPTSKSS

RET = molecular target: T7, RET (Homo sapiens, UniProt P07949); assay: RET kinase screening assay (33P-ATP FlashPlate); type: biochemical; conditions: human RET kinase domain; 10 μM ATP; 1 hr at 30° C;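 further: biotinylated peptide substrate captured on streptavidin FlashPlate, 33P phosphate transfer read by scintillation counting, 1% DMSO, lower incorporation means inhibition, percent relative to per-plate maximum and minimum signals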
T7 construct: polyhistidine (N)
T7 sequence (P07949 658-1114 limits assumed): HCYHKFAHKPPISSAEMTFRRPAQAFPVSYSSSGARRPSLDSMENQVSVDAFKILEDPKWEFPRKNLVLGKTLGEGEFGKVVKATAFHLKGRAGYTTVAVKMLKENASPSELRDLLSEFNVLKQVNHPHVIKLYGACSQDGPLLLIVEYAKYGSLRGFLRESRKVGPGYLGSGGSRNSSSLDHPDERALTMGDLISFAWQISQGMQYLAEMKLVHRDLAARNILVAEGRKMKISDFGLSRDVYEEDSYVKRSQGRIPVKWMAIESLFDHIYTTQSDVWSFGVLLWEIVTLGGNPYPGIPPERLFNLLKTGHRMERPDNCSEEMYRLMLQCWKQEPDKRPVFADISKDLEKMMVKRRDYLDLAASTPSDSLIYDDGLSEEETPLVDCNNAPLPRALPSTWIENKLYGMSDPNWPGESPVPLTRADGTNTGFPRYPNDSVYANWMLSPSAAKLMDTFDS

[2] = Homo sapiens, HCT-116, HCT-116 cells

Row | SMILES | IC50 (c-Src kinase) | IC50 (A375 malignant melanoma) | IC50 (Lyn kinase) | IC50 (HER2) | IC50 [1] | IC50 (HCT-116 colon carcinoma; Homo sapiens, HCT-116 cells) | IC50 (CDK1) | IC50 (VEGF-R2) | IC50 (Aurora-A) | IC50 ([1]; HeLa) | IC50 (HCT-116 colon carcinoma; [2]) | IC50 (HCT-116 colon carcinoma; HCT-116 cells) | IC50 (RET)
1 | CN1CCN(c2ccc3[nH]c(-c4n[nH]c5ncc(-c6cncc7ccccc67)cc45)nc3c2)CC1 [Cpd 31, 4-{3-[5-(4-methyl-piperazin-1-yl)-1H-benzoimidazol-2-yl]-1H-pyrazolo[3,4-b]pyridin-5-yl}-isoquinoline] | 4.21 nM | 165 nM | 3.87 nM | 6.51 µM | 455 nM | 355 nM | 13.6 nM | – | – | – | – | – | –
2 | O=C(NC1CC1)c1cccc2[nH]c(-c3n[nH]c4ncc(-c5cncc6ccccc56)cc34)nc12 [Cpd 47, 2-(5-isoquinolin-4-yl-1H-pyrazolo[3,4-b]pyridin-3-yl)-1H-benzoimidazole-4-carboxylic acid cyclopropylamide] | 0.635 nM | 12.9 nM | 2.28 nM | ~10 µM | – | – | 1.59 nM | 149 nM | 57.2 nM | 12.2 nM | 31.3 nM | – | –
3 | c1ccc2c(-c3cnc4[nH]nc(-c5nc6cc(N7CCOCC7)ccc6[nH]5)c4c3)cncc2c1 [Cpd 51, 4-[3-(5-morpholin-4-yl-1H-benzoimidazol-2-yl)-1H-pyrazolo[3,4-b]pyridin-5-yl]-isoquinoline] | 2.82 nM | 297 nM | 5 nM | > 100 µM | – | – | 8.55 nM | 1080 nM | 41.5 nM | 401 nM | 376 nM | – | –
4 | COCc1cccc2[nH]c(-c3n[nH]c4ncc(-c5cncc(CN6CCOCC6)c5)cc34)nc12 [Cpd 54, 3-(4-methoxymethyl-1H-benzoimidazol-2-yl)-5-(5-morpholin-4-ylmethyl-pyridin-3-yl)-1H-pyrazolo[3,4-b]pyridine] | 143 nM | – | 578 nM | > 100 µM | – | – | 177 nM and 343 nM | 1880 nM and 1570 nM | 3260 nM and 4640 nM | – | 33.6 nM | 63.5 nM | –
5 | COCc1cccc2[nH]c(-c3n[nH]c4ncc(-c5cncc(CN(C)C)c5)cc34)nc12 [Cpd 55, {5-[3-(4-methoxymethyl-1H-benzoimidazol-2-yl)-1H-pyrazolo[3,4-b]pyridin-5-yl]-pyridin-3-ylmethyl}-dimethyl-amine] | 143 nM | 330 nM | 578 nM | > 100 µM | – | – | 124 nM | 1600 nM | 3750 nM | 1230 nM | 186 nM | – | –
6 | COCc1cccc2[nH]c(-c3n[nH]c4ncc(-c5cncc(CNCCO)c5)cc34)nc12 [Cpd 77, 2-({5-[3-(4-methoxymethyl-1H-benzoimidazol-2-yl)-1H-pyrazolo[3,4-b]pyridin-5-yl]-pyridin-3-ylmethyl}-amino)-ethanol] | 183 nM | 1610 nM | – | > 10 µM | – | – | 13 nM | 349 nM | 3180 nM | 1620 nM | 643 nM | – | > 10000 nM
7 | CNCc1cncc(-c2cnc3[nH]nc(-c4nc5cc(N6CCN(C)CC6)ccc5[nH]4)c3c2)c1 [Cpd 81, methyl-(5-{3-[5-(4-methyl-piperazin-1-yl)-1H-benzoimidazol-2-yl]-1H-pyrazolo[3,4-b]pyridin-5-yl}-pyridin-3-ylmethyl)-amine] | 225 nM | 768 nM | 170 nM | 0.715 µM | 444 nM | 600 nM | 3.04 nM | 35.9 nM | 173 nM | – | – | – | –
8 | CC(C)NCc1cncc(-c2cnc3[nH]nc(-c4nc5cc(N6CCN(C)CC6)ccc5[nH]4)c3c2)c1 [Cpd 83, isopropyl-(5-{3-[5-(4-methyl-piperazin-1-yl)-1H-benzoimidazol-2-yl]-1H-pyrazolo[3,4-b]pyridin-5-yl}-pyridin-3-ylmethyl)-amine] | 6.63 nM | 1060 nM | 2.43 nM | 1.49 µM | – | – | 7.67 nM | 73.4 nM | 263 nM | 1450 nM | 1500 nM | – | –
9 | COc1ccc2nc(-c3n[nH]c4ncc(-c5cccnc5)cc34)[nH]c2c1 [Cpd 90, 3-(6-methoxy-1H-benzoimidazol-2-yl)-5-pyridin-3-yl-1H-pyrazolo[3,4-b]pyridine] | 56.7 nM | 371 nM | 69.4 nM | – | – | – | 2.74 nM | 316 nM | 279 nM | 418 nM | 299 nM | – | –
10 | Fc1ccc2nc(-c3n[nH]c4ncc(-c5cccnc5)cc34)[nH]c2c1 [Cpd 92, 3-(6-fluoro-1H-benzoimidazol-2-yl)-5-pyridin-3-yl-1H-pyrazolo[3,4-b]pyridine] | 97.9 nM | 467 nM | > 100000 nM | – | – | – | 6.57 nM | – | – | 698 nM | 348 nM | – | –
11 | CNCc1cncc(-c2cnc3[nH]nc(-c4nc5ccc(OC)cc5[nH]4)c3c2)c1 [Cpd 97, {5-[3-(6-methoxy-1H-benzoimidazol-2-yl)-1H-pyrazolo[3,4-b]pyridin-5-yl]-pyridin-3-ylmethyl}-methyl-amine] | 16.4 nM | 164 nM | 4.29 nM | 1.45 µM | 61.4 nM | 61.5 nM | 0.9 nM | – | – | – | – | – | –
12 | COc1ccc2[nH]c(-c3n[nH]c4ncc(-c5cncc(CNC(C)C)c5)cc34)nc2c1 [Cpd 102, isopropyl-{5-[3-(5-methoxy-1H-benzoimidazol-2-yl)-1H-pyrazolo[3,4-b]pyridin-5-yl]-pyridin-3-ylmethyl}-amine] | 11.7 nM | 120 nM | – | 10.7 µM | – | – | 3.2 nM | 269 nM | 359 nM | 47.2 nM | 106 nM | – | ~1000 nM
